US20230058623A1, “NOVEL HETEROARYL-TRIAZOLE COMPOUNDS AS PESTICIDES” (Bayer Aktiengesellschaft, priority 2019, published 2023)

Columns and labels:
Format in all cases: in vivo
[1] = tested on: adult cat fleas (Ctenocephalides felis); test: Ctenocephalides felis in-vitro contact test, adult cat flea; conditions: application rate 5 μg/cm^2 (=500 g/ha), after 48 hours, read-out: activity (efficacy: fleas dead or moribund)
Outline: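 Acetone solutions of compound were coated onto inner walls of glass tubes (900 ppm giving 5 μg/cm^2) and dried; 5-10 adult C. felis were then held 48 h at room temperature. Efficacy = % fleas dead or moribund, judged by inability to escape a 45-50° C heating plate within 5 min.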

[2] = tested on: green peach aphid (Myzus persicae); test: Myzus persicae oral test; conditions: 120 h, read-out: activity (mortality)
Outline: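 Acetone stock (1 pbw compound/100 pbw solvent) diluted in water; mixed with sugar-supplemented IPL41 medium; parafilm-sealed; mixed aphid population sucks through film; mortality % read at 5 d.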

[3] = tested on: green peach aphid (Myzus persicae); test: Myzus persicae spray test; conditions: foliar, 120 h, after 5 days, Chinese cabbage leaf disks; for mortality at 100 g/ha: application rate 100 g/ha, read-out: activity (mortality)
Outline: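 Chinese cabbage leaf disks infested with all aphid instars were sprayed with compound diluted in water containing emulsifier (1000 ppm). Mortality (%) was scored after 5 days, 100% meaning all aphids killed.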

[4] = tested on: larvae of the southern green stink bug (Nezara viridula); test: Nezara viridula spray test; conditions: 96 h, after 4 days, barley plants; for mortality at 500 g/ha: application rate 500 g/ha, read-out: activity (mortality)
Outline: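 Barley plants sprayed with the active compound in emulsifier-containing water, then infested with stink bug larvae. Mortality scored in % after 4 days, with 100% meaning all insects killed.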

[5] = tested on: brown planthopper (Nilaparvata lugens); test: Nilaparvata lugens spray test; conditions: 96 h, after 4 days, rice plants; for mortality at 500 g/ha: application rate 500 g/ha
Experimental: Nilaparvata lugens—Spray Test
To produce a suitable preparation of active compound, 1 part by weight of active compound is mixed with the stated amount of solvents and is diluted with water, containing an emulsifier concentration of 1000 ppm, to the desired concentration. Further test concentrations are prepared by dilution with emulsifier containing water.
Rice plants (Oryza sativa) are sprayed with a preparation of the active ingredient of the desired concentration and the plants are infested with the brown planthopper (Nilaparvata lugens).
After 4 days mortality in % is determined. 100% means all planthoppers have been killed and 0% means none of the planthoppers have been killed.

[6] = tested on: Rhipicephalus (Boophilus) microplus larvae (strain Parkhurst, resistant against synthetic pyrethroids); test: Rhipicephalus (Boophilus) microplus in-vitro contact test, larval cattle tick; conditions: after 48 hours, read-out: activity (efficacy: larvae dead or moribund); for pest or weed control at 1 µg/cm2, 100 g/ha: application rate 1 μg/cm^2 (=100 g/ha); for pest or weed control at 5 µg/cm2, 500 g/ha: application rate 5 μg/cm^2 (=500 g/ha)
Outline: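 Acetone solutions were coated onto glass tube walls, giving 5 μg/cm^2 at 900 ppm. Once dry, 20–50 pyrethroid-resistant Parkhurst larvae were added per tube and held 48 h at 27 °C and 85% RH. Efficacy was scored by negative geotaxis as the percentage of dead or moribund larvae.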

[7] = tested on: adult engorged female ticks (Rhipicephalus microplus); test: Rhipicephalus (Boophilus) microplus injection test; conditions: 168 h, application rate 4 μg/tick, egg deposition after 7 days, read-out: activity (efficacy: infertile eggs)
Outline: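 Five adult engorged female ticks injected into the abdomen with 1 μL compound solution in DMSO, then held in a climate chamber. Fertile egg deposition assessed after 7 days, unclear eggs kept until hatching (about 42 days); efficacy 100% = all eggs infertile, 0% = all fertile.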

[8] = tested on: adult unfed cat fleas (Ctenocephalides felis); test: Ctenocephalides felis oral test; conditions: 48 h, read-out: activity (mortality)
Experimental: Ctenocephalides felis—Oral Test
Solvent: dimethyl sulfoxide
To produce a suitable preparation of active compound, 10 mg of active compound are dissolved in 0.5 mL solvent, and the concentrate is diluted with citrated cattle blood to the desired concentration.
Approximately 20 adult unfed cat fleas (Ctenocephalides felis) are placed in a flea chamber whose top and bottom is covered with gauze. A chamber whose bottom is sealed with parafilm, is filled with the blood-compound solution and placed on top of the flea chamber, so that the fleas can suck the blood. The blood chamber is heated to 37° C. whereas the flea chamber is kept at room temperature.
After 2 days mortality in % is determined. 100% means all the fleas have been killed; 0% means none of the fleas have been killed.

[9] = tested on: adult brown dog ticks (Rhipicephalus sanguineus); test: Rhipicephalus sanguineus in-vitro contact test, adult brown dog ticks; conditions: application rate 5 μg/cm^2 (=500 g/ha), after 48 hours, read-out: activity (efficacy: ticks dead or moribund)
Outline: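 Acetone solution (900 ppm giving 5 μg/cm²) coated on inner walls of glass tubes; after drying, 5-10 adult ticks added and held at room temperature 48 h. Ticks then placed on 45-50 °C plate ≤5 min; those unable to climb away scored dead/moribund, efficacy as % affected.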

[10] = tested on: larvae of the banded cucumber beetle (Diabrotica balteata); test: Diabrotica balteata spray test; conditions: 168 h, application rate 100 g/ha (=32 μg/well), after 7 days, wheat seeds, read-out: activity (efficacy: seedlings grown)
Outline: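 Wheat seeds germinated 1 day on agar were sprayed with compound diluted in water with 1000 ppm emulsifier, then infested with 10-20 Diabrotica balteata larvae. Efficacy in % scored after 7 days: 100% = seedlings grown as untreated, uninfected control; 0% = no seedlings grown.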

[11] = tested on: adult flies Musca domestica strain WHO-N; test: Musca domestica test (MUSCDO surface treatment & contact assay); conditions: 24 hours after contact, read-out: efficacy (mortality)
Experimental: Musca domestica Test (MUSCDO Surface Treatment & Contact Assay)
(§1) Solvent: Aceton+2000 ppm rapeseed oil methyl ester (RME)
(§2) In order to produce a sufficient, active ingredient containing solution it is necessary to solve the test compound in the solvent-mix (acetone at 2 mg/ml/RME 2000 ppm). This solution is pipetted onto a glazed tile and after evaporation of the acetone, adult flies of the species Musca domestica strain WHO-N are placed onto the dried surface. The exposure time is 30 minutes.
(§3) Mortality in percent (%) is determined 24 hours after contact of the insects to the treated surface. 100% mortality means that all tested insects are dead, whereas 0% means that no insect died.

[12] = tested on: fall armyworm larvae (Spodoptera frugiperda); test: Spodoptera frugiperda spray test; conditions: 168 h, application rate 100 g/ha, after 7 days, maize leaf sections
Outline: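 Maize leaf sections sprayed with compound diluted in water with 1000 ppm emulsifier, then infested with larvae once dry. Mortality (%) scored after 7 days; 100% = all caterpillars killed.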

[13] = tested on: adult mosquitoes Aedes aegypti strain MONHEIM; test: Aedes aegypti test (AEDSAE surface treatment & contact assay); conditions: surface concentration 20 mg/m^2, exposure 30 minutes, 24 hours after contact, read-out: efficacy (mortality)
Experimental: Aedes aegypti Test (AEDSAE Surface Treatment & Contact Assay)
as §1
as §2, with “mosquitoes” for “flies”, “Aedes aegypti” for “Musca domestica”, “MONHEIM” for “WHO-N”
as §3

SMILES | pest or weed control at 5 µg/cm2 [1] [%] | mortality at 4 ppm [2] [%] | mortality at 500 g/ha ([3]; application rate 500 g/ha) [%] | mortality at 100 g/ha ([4]; application rate 100 g/ha) [%] | mortality at 500 g/ha [4] [%] | mortality at 500 g/ha [5] [%] | pest or weed control at 1 µg/cm2, 100 g/ha [6] [%] | pest or weed control at 5 µg/cm2, 500 g/ha [6] [%] | pest or weed control at 0.004 mg [7] [%] | mortality at 100 ppm [8] [%] | pest or weed control at 5 µg/cm2, 500 g/ha [9] [%] | pest or weed control at 32 µg/disc, 100 g/ha [10] [%] | mortality at 100 g/ha [3] [%] | mortality at 4 mg/m2 ([11]; surface concentration 4 mg/m^2, exposure 30 minutes) [%] | mortality at 20 mg/m2 ([11]; surface concentration 20 mg/m^2, exposure 30 minutes) [%] | mortality at 100 g/ha [12] [%] | mortality at 20 mg/m2 [13] [%] | mortality at 100 g/ha ([5]; application rate 100 g/ha) [%]
C[C@H](NC(=O)c1cc(Cl)cc(S(C)(=O)=O)c1)c1ncnn1-c1ccc(C(=O)N2C[C@H](C)O[C@@H](C)C2)cn1 [Example I-122] | 80 | 100 | 90 | 90 | 100 | 90 | – | – | – | – | – | – | – | – | – | – | – | –
Cc1nc([C@H](C)NC(=O)c2cc(OC(F)(F)F)cc(C3CC3)c2)n(-c2ccc(C(=O)N3C[C@@H](C)O[C@@H](C)C3)cn2)n1 [Example I-115] | 100 | 100 | – | – | – | – | 90 | 90 | 100 | 100 | 100 | 80 | 90 | 80 to 100 | 80 to 100 | – | – | –
Cc1nc([C@H](C)NC(=O)c2cc(Cl)cc(C(F)(F)F)c2)n(-c2ccc(C(=O)N3CC(F)C3)cn2)n1 [Example I-20] | 100 | 100 | – | – | – | – | 90 | 100 | 100 | 100 | 100 | – | 90 | – | – | 100 | 80 to 100 | –
C[C@@H]1CN(C(=O)c2ccc(-n3ncnc3[C@H](C)NC(=O)c3cc(Cl)cc(C(F)(F)F)c3)nc2)C[C@@H](C)O1 [Example I-40] | – | 100 | – | – | – | – | 100 | 100 | 100 | 90 | 100 | 100 | 90 | – | – | – | 80 to 100 | –
CCc1nc([C@H](C)NC(=O)c2cc(Br)cc(OC(F)(F)F)c2)n(-c2ccc(C(=O)N3CCOCC3)cn2)n1 [Example I-134] | – | – | – | – | 100 | 100 | – | – | – | – | – | 100 | 90 | – | – | 100 | – | –
Cc1nc([C@H](C)NC(=O)c2cc(C(F)(F)F)cc(C(F)(F)F)c2)n(-c2ccc(C(=O)N3CC(C)(C)OC(C)(C)C3)cn2)n1 [Example I-78] | – | – | – | – | 100 | 100 | 100 | 100 | – | – | 100 | – | – | – | – | 100 | – | –
C[C@H](NC(=O)c1cc(Cl)cc(C(F)(F)F)c1)c1ncnn1-c1ccc(N2CCCC2=O)cn1 [Example I-54] | – | 100 | – | – | – | – | – | – | – | – | – | – | – | – | – | – | – | 100
